Ends that are not written are not given here.
System: UVB-irradiated human keratinocytes
Test: Survival of UVB-irradiated keratinocytes, MTS viability (Example 1)
Format: cell-based
Conditions: for decreased survival rate: 45 mJ/cm2 UV
Procedure: Orsirtine™ ((SEQ ID No. 8) G-L-Y-D-N-L-E) and resveratrol, […], were tested for their ability to improve survival of UVB-irradiated human keratinocytes.
Normal human keratinocytes were cultured in Epilife Medium with Human Keratinocyte Growth Supplement. The cells were sub-cultured into 96-well plates (Costar). Keratinocytes were pretreated with resveratrol (25 μM) and Orsirtine (1%, 3%) by themselves, and in a complex of resveratrol (25 μM) and Orsirtine™ (3%). Keratinocytes were treated with the undiluted complex and with dilutions of 1:2, 1:4 and 1:8 (complex: Epilife media).
Keratinocytes were incubated with these treatments overnight at 37° C.; 5% CO2. After 24 hours, the treatment was aspirated and keratinocytes were washed once in D-PBS. 100 μl of D-PBS was added for the irradiation. The cells were subjected to UVB irradiation at 0, 45, 90 and 135 mJ/cm^2 UVB. After the irradiation, D-PBS was removed. Keratinocytes were post treated appropriately and incubated overnight at 37° C.; 5% CO2. The next day, cells were assayed for viability, utilizing MTS reagent (CellTiter96, Promega). Absorbance readings were taken on the SpectraMax190 spectrophotometer (Molecular Devices) at 490 nm following an approximate two hour incubation at 37° C.; 5% CO2.

[1] = Orsirtine 3% alone, listed as Orsirtine ™

Row | Molecule | decreased survival rate (just resveratrol (25 μM)) [%] | Increased survival after 90 mJ/cm^2 UV (Resveratrol 25 μM alone) [%] | Increased survival after 135 mJ/cm^2 UV (Resveratrol 25 μM alone) [%] | decreased survivability (UVB of 90 mJ/cm^2, 25 μM Resveratrol by itself) [%] | decreased survival rate (just Orsirtine 3%) [%] | Increased survival after 90 mJ/cm^2 UV (Orsirtine 1% alone) [%] | Increased survival after 135 mJ/cm^2 UV (Orsirtine 1% alone) [%] | Increased survival after 90 mJ/cm^2 UV (Orsirtine 3% alone) [%] | Increased survival after 135 mJ/cm^2 UV (Orsirtine 3% alone) [%] | Increased survival after 90 mJ/cm^2 UV [1] [%] | Increased survival after 135 mJ/cm^2 UV [1] [%]
1 | Oc1ccc(/C=C\c2cc(O)cc(O)c2)cc1 [Resveratrol, 3,5,4′-trihydroxystilbene, reference compound] | 20 | −15 | 22 | 15 | – | – | – | – | – | – | –
2 | GLYDNLE [Orsirtine™, peptide G-L-Y-D-N-L-E, INCI Water (and) Glycerin (and) Oryza Sativa (Rice) Extract, from ISP Vincience] | – | – | – | – | 8 | −17 | 5 | 11 | 26 | 11 | 26
